Key:
[1] = biological target: T1, Steroid 17-alpha-hydroxylase/17,20 lyase (Homo sapiens, UniProt P05093); assay: Inhibition of human CYP17 expressed in Escherichia coli at 0.2 uM
T1 sequence (P05093 whole entry): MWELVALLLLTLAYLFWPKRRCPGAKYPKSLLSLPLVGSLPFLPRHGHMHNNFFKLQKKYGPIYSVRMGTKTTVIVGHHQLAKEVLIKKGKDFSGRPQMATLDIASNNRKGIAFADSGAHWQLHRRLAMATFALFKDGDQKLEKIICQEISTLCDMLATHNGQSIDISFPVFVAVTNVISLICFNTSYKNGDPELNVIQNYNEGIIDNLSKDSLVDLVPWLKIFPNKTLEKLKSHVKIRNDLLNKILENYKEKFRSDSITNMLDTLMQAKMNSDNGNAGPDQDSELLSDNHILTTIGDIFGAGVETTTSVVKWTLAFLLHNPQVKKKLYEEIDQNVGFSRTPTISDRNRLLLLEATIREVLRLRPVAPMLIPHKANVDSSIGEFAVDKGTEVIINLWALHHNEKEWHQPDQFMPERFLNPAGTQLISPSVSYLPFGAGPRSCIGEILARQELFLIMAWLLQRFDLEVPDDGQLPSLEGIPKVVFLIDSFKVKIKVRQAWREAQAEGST

[2] = biological target: T1, Steroid 17-alpha-hydroxylase/17,20 lyase; assay: Inhibition of human CYP17 expressed in Escherichia coli at 2 uM
[3] = biological target: T2, CYP1A2 (Homo sapiens, UniProt P05177); assay: Inhibition of hepatic CYP1A2 at 1 uM; type: ADME
T2 sequence (P05177 whole entry): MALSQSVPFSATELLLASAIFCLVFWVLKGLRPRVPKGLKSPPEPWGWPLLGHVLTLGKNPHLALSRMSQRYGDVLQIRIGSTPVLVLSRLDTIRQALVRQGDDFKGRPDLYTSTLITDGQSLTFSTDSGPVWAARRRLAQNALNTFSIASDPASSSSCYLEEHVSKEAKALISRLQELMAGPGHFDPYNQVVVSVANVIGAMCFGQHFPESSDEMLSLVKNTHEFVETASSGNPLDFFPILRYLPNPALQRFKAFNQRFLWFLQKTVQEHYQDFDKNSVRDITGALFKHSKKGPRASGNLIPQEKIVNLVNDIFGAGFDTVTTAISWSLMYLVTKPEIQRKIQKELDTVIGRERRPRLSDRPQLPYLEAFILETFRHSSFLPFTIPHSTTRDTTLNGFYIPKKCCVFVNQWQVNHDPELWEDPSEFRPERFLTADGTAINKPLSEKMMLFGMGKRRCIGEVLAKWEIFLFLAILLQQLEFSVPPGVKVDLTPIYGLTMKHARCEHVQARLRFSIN

[4] = biological target: T2, CYP1A2; assay: Inhibition of hepatic CYP1A2 at 10 uM; type: ADME
[5] = biological target: T3, CYP2C9 (Homo sapiens, UniProt P11712); assay: Inhibition of hepatic CYP2C9 at 1 uM; type: ADME
T3 sequence (P11712 whole entry): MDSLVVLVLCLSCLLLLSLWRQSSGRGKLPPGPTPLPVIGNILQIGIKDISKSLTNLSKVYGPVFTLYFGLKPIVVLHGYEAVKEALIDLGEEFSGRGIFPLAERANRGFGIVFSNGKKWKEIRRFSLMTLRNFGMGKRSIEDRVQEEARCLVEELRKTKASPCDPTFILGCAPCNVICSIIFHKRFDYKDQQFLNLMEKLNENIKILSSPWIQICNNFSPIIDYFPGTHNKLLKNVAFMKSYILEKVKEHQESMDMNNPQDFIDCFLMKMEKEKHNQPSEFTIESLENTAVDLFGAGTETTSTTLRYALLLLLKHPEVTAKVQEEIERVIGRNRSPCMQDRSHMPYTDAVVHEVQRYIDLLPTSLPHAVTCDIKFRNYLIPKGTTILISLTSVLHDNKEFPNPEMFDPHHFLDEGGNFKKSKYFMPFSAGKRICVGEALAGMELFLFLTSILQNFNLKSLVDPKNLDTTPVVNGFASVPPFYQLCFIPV

[6] = biological target: T3, CYP2C9; assay: Inhibition of hepatic CYP2C9 at 10 uM; type: ADME
[7] = biological target: T4, CYP2C19 (Homo sapiens, UniProt P33261); assay: Inhibition of hepatic CYP2C19 at 1 uM; type: ADME
T4 sequence (P33261 whole entry): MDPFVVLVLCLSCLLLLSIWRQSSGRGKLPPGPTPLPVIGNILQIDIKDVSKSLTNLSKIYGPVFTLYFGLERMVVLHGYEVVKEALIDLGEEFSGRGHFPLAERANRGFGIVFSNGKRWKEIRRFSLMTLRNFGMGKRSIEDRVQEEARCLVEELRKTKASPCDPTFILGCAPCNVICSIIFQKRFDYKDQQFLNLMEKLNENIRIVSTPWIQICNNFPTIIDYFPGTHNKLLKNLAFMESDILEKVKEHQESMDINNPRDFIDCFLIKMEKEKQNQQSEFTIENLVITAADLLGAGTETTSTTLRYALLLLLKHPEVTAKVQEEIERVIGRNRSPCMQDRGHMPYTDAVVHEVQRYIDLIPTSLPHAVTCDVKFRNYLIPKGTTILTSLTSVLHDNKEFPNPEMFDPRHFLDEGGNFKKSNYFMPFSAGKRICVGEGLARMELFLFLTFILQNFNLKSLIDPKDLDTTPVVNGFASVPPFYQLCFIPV

[8] = biological target: T4, CYP2C19; assay: Inhibition of hepatic CYP2C19 at 10 uM; type: ADME
[9] = biological target: T5, CYP3A4 (Homo sapiens, UniProt P08684); assay: Inhibition of hepatic CYP3A4 at 1 uM; type: ADME
T5 sequence (P08684 whole entry): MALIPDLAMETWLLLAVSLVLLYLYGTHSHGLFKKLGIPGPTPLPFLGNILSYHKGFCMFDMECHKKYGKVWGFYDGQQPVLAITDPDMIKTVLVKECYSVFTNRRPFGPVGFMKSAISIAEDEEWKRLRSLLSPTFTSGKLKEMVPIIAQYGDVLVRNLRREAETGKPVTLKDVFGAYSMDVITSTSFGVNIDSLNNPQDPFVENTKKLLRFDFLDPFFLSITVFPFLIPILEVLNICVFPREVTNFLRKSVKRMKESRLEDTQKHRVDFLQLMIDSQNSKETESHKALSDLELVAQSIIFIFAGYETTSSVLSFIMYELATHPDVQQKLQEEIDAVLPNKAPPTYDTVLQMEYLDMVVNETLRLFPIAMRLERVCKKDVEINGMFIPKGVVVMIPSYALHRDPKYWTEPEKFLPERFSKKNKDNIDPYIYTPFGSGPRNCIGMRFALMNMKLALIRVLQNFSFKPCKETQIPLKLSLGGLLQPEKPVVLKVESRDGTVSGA

[10] = biological target: T5, CYP3A4; assay: Inhibition of hepatic CYP3A4 at 10 uM; type: ADME
[11] = biological target: T5, CYP3A4; assay: Inhibition of hepatic recombinant CYP3A4 at 10 uM; type: ADME
[12] = biological target: T6, CYP2D6 (Homo sapiens, UniProt P10635); assay: Inhibition of CYP2D6 at 10 uM; type: ADME
T6 sequence (P10635 whole entry): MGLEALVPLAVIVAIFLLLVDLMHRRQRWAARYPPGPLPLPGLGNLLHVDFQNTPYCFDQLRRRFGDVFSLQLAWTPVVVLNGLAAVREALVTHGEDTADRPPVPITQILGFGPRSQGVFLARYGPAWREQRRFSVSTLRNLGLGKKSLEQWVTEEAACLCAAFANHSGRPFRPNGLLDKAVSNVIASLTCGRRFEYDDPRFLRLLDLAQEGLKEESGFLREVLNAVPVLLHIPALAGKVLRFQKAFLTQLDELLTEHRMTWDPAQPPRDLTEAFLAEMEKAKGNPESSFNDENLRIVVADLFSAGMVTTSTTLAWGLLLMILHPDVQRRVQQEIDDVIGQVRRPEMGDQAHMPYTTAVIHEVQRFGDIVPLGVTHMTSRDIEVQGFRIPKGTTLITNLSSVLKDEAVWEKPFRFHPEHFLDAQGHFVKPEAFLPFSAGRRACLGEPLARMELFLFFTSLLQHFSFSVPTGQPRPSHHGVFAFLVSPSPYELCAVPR

[13] = biological target: T6, CYP2D6; assay: Inhibition of CYP2D6 at 1 uM; type: ADME
[14] = biological target: T7, CYP11B1 (Homo sapiens, UniProt P15538); assay: Inhibition of human CYP11B1 expressed in V79Zh11B1 cells at 0.2 uM; type: cell-based, V79; conditions: V79Zh11B1 cells expressing human CYP11B1
T7 sequence (P15538 whole entry): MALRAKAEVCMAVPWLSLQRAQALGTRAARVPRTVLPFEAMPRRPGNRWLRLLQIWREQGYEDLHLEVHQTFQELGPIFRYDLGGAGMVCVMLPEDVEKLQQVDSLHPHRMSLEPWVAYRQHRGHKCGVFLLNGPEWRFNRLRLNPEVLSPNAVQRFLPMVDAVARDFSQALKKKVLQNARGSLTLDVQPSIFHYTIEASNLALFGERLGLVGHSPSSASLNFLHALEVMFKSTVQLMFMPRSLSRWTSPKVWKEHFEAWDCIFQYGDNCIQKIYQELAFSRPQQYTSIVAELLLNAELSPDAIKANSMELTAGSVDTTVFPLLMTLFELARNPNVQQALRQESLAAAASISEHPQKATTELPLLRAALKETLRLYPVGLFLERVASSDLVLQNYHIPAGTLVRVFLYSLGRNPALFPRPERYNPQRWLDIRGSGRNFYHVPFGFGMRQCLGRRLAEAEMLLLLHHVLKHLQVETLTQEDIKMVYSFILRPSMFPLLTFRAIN

[15] = biological target: T7, CYP11B1; assay: Inhibition of human CYP11B1 expressed in V79Zh11B1 cells at 2 uM; type: cell-based; conditions: V79Zh11B1 cells expressing human CYP11B1
[16] = biological target: T1, Steroid 17-alpha-hydroxylase/17,20 lyase; assay: Inhibition of human CYP17 expressed in Escherichia coli

Compound | inhibition at 0.2 µM [1] [%] | inhibition at 2 µM [2] [%] | inhibition at 1 µM [3] [%] | inhibition at 10 µM [4] [%] | inhibition at 1 µM [5] [%] | inhibition at 10 µM [6] [%] | inhibition at 1 µM [7] [%] | inhibition at 10 µM [8] [%] | inhibition at 1 µM [9] [%] | inhibition at 10 µM [10] [%] | further results
Fc1ccc(-c2ccc3c(-c4cccnc4)cccc3c2)cc1 | 2 | 3 |  |  |  |  |  |  |  |  | 
Oc1ccc2cc(-c3ccc(F)cc3)ccc2c1-c1cccnc1 | 0 | 0 |  |  |  |  |  |  |  |  | 
Fc1ccc(-c2ccc3cc(-c4cccnc4)ccc3c2)cc1 | 0 | 22 |  |  |  |  |  |  |  |  | 
COc1ccc2cc(-c3ccc(F)cc3)ccc2c1Cn1ccnc1 | 13 | 45 | 80 | 85 | 100 | 100 | 93 | 96 | 93 | 95 | 
Fc1ccc(-c2ccc3cc(Cn4ccnc4)ccc3c2)cc1 | 3 | 14 |  |  |  |  |  |  |  |  | 
Cc1cc(F)ccc1-c1ccc2c(-c3cccnc3)cccc2c1 | 3 | 3 |  |  |  |  |  |  |  |  | 
COc1ccc2cc(-c3cccnc3)ccc2c1-c1ccc(F)cc1 | 0 | 1 |  |  |  |  |  |  |  |  | 
COc1ccc2cc(-c3cccc(-c4ccncc4)c3)ccc2c1 | 4 | 23 |  |  |  |  |  |  |  |  | 
Oc1ccc2cc(-c3cccc(-c4cccnc4)c3)ccc2c1 | 0 | 8 |  |  |  |  |  |  |  |  | 
Oc1ccc2cc(-c3cccc(-c4ccncc4)c3)ccc2c1 | 31 | 66 | 98 | 98 | 94 | 97 | 86 | 89 | 6 | 19 | inhibition at 10 µM [11]: 19%; inhibition at 10 µM [12]: 85%; inhibition at 1 µM [13]: 80%; inhibition at 0.2 µM [14]: 3%; inhibition at 2 µM [15]: 23%
Oc1ccc2cc(-c3ccc(Cn4ccnc4)cc3)ccc2c1 | 24 | 61 |  |  |  |  |  |  |  |  | 
Fc1ccc(-c2cc(Cn3ccnc3)c3ccccc3c2)cc1 | 9 | 50 |  |  |  |  |  |  |  |  | 
COc1ccc2cc(-c3cccc(-c4cccnc4)c3)ccc2c1 | 3 | 4 |  |  |  |  |  |  |  |  | 
COc1ccc2cc(-c3cccc(Cn4ccnc4)c3)ccc2c1 | 0 | 28 | 96 | 97 | 97 | 100 | 95 | 97 | 91 | 96 | 
Fc1ccc(-c2ccc3c(-c4ccncc4)cccc3c2)cc1 | 1 | 28 |  |  |  |  |  |  |  |  | 
Fc1ccc(-c2ccc3c(Cn4ccnc4)cccc3c2)cc1 | 2 | 19 |  |  |  |  |  |  |  |  | 
COc1ccc2cc(-c3ccc(F)cc3)ccc2c1-c1cccnc1 | 6 | 7 | 40 | 87 | 66 | 54 | 68 | 28 | 64 | 86 | 
C[C@]12CC[C@H](O)CC1=CC[C@@H]1[C@@H]2CC[C@]2(C)C(c3cccnc3)=CC[C@@H]12 [ABIRATERONE] |  |  | 36 | 53 | 17 | 51 | 3 | 7 | 7 | 7 | IC50 [16]: 0.072 µM
CC(=O)N1CCN(c2ccc(OCC3COC(Cn4ccnc4)(c4ccc(Cl)cc4Cl)O3)cc2)CC1 (stereo not drawn) [KETOCONAZOLE] |  |  | 8 | 38 | 21 | 75 | 24 | 1 | 1 | 4 | 

From ChEMBL document CHEMBL1140785, “Synthesis, biological evaluation and molecular modelling studies of novel ACD- and ABD-ring steroidomimetics as inhibitors of CYP17” (Bioorg Med Chem Lett, 2008)
